Residues, ends and D or L forms follow the SMILES beside them.
Tests used:
EPS15 = biological target: T1, EPS15 (Homo sapiens, UniProt P42566); experiment: Titration nHU, Western blot, endogenous EPS15 in Jurkat extract; type: binding; settings: source data of Fig 5, titration nHU, unit inferred
T1 construct: endogenous in cells; host or cells: Jurkat E6.1
T1 sequence (P42566 1-896): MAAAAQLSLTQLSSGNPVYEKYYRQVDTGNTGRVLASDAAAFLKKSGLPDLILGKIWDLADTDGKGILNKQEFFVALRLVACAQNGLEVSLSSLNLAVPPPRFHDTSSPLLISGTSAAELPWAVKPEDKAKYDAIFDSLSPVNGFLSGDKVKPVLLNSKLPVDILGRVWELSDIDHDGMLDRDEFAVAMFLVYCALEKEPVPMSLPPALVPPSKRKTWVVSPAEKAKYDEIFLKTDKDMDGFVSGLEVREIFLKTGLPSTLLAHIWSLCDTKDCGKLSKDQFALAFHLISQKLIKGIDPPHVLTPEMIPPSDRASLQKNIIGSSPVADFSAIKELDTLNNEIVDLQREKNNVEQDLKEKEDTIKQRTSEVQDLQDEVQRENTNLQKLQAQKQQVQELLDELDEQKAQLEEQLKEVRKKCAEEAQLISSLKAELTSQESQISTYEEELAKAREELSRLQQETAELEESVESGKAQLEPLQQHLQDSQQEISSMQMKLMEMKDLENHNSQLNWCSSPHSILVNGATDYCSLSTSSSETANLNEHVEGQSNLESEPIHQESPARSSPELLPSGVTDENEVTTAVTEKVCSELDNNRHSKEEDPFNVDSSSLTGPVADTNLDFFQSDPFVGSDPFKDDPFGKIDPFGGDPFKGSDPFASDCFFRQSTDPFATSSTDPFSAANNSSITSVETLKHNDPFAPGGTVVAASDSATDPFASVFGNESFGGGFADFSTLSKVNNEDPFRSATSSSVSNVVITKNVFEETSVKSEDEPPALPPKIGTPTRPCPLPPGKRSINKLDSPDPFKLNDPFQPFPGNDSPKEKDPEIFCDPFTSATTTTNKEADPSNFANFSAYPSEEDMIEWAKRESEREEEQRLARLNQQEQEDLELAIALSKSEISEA
Text: (§1) To identify the partners of NPF motifs, we used the native holdup (nHU) assay that was recently developed by our team (Fig. 1B). The holdup approach has been extensively used to determine equilibrium dissociation constants of transient interactions mediated by PDZ and SH3 domains, 14-3-3, and human papilloma virus E6 proteins, and even nucleic acid-protein interactions[7],[30]–[35]. In the nHU experiments, a purified bait molecule, or a control compound, is immobilized on a resin at high concentration (typically 10 μM, or higher) and these resin stocks are subsequently mixed with dilute cell extracts. After a relatively long incubation, i.e., 2 h at 4 °C, the liquid phase is separated by centrifugation. This liquid phase contains the unbound prey molecules at near binding equilibrium that can be quantified using selective and quantitative analytical approaches, such as mass spectrometry. Therefore, proteins that interact with the bait molecule will appear to be depleted in the solvent phase and by measuring its relative concentration compared to the control nHU experiment, the degree of binding (θ) can be determined that can be converted to apparent steady-state dissociation constants, according to:1 θ=1−Ifree/Itot=Cbait/Cbait+Kapp where Itot and Ifree are the measured total and bait-depleted equilibrium mass spectrometry total ion intensities of prey proteins, Cbait is the bait molecule concentration and Kapp is the apparent dissociation constant.
(§2) Jurkat E6.1 cells (ECACC #88042803, RRID: CVCL_0367) were grown in RPMI (Gibco) medium completed with 10% FBS (Gibco BRL) and 40 μg/ml gentamicin (Gibco/Life Technology). To prepare total cell extracts, Jurkat cells were seeded onto T-175 flasks and grew until 3 × 10^6 cells/ml confluency. Cells were collected by 1000 g x 5 min centrifugation, washed with PBS and then lysed in ice-cold lysis buffer (Hepes-KOH pH 7.5 50 mM, NaCl 150 mM, Triton X-100 1%, cOmplete EDTA-free protease inhibitor cocktail 5x, TCEP 5 mM, glycerol 10%).
(§3) Cell suspensions were sonicated 4×20 sec with 1 sec long pulse on ice, then incubated rotating at 4 °C for 30 min. The lysates were centrifuged at 12,000 rpm 4 °C for 20 min and supernatant was kept. Total protein concentration was measured by standard Bradford method (Bio-Rad Protein Assay Dye Reagent #5000006) using a BSA calibration curve (MP Biomedicals #160069, diluted in lysis buffer) on a Bio-Rad SmartSpec 3000 spectrophotometer instrument.
(§4) Titration holdup experiments were carried out as described above using 25 μl saturated resins prepared. Briefly, we mixed control, or bait-saturated resins at various proportions by keeping the total resin amount and resin-analyte ratio constant during the experiment (for 25 μl we used 100 μl cell extract as analyte). In titration experiments with protein baits, bait concentration was determined as described above for the saturated resin stocks. Experiments were carried out at 4 °C for 2 h and recovered supernatants were subjected to western blot or dot blot analysis.
For Western blot, samples were mixed with 4x Laemmli Sample Buffer in 3:1 ratio. Equal amounts of samples were loaded on 6-10% acrylamide-gels (generally 16 μg). Transfer was done into PVDF membranes using a Trans-Blot Turbo Transfer System and Trans-Blot Turbo RTA Transfer Kit (BioRad, #1704275). For Dot blot, nHU samples were directly loaded on Nitrocellulose membranes using 48 Sample vacuum manifold (Cleaver Scientific) following the manufacturer’s recommendations. […]

POLE = experiment: Titration nHU, Western blot, endogenous POLE in Jurkat extract; type: binding, human; settings: source data of Fig 5, titration nHU, Jurkat extract; unit inferred
Text: as §1, §2, §3, §4
For Western blot, samples were mixed with 4x Laemmli Sample Buffer in 3:1 ratio. Equal amounts of samples were loaded on 6-10% acrylamide-gels (generally 16 μg). Transfer was done into PVDF membranes using a Trans-Blot Turbo Transfer System and Trans-Blot Turbo RTA Transfer Kit (BioRad, #1704275). For Dot blot, nHU samples were directly loaded on Nitrocellulose membranes using 48 Sample vacuum manifold (Cleaver Scientific) following the manufacturer’s recommendations.
After 1 h of blocking in 5% milk, membranes were incubated overnight at 4 °C with primary antibodies in 5% milk-TBS-Tween.

| SMILES | Kd (EPS15) [µM] | Kd (POLE) [µM] |
| --- | --- | --- |
| CC(C)C[C@H](NC(=O)[C@H](CCCNC(=N)N)NC(=O)[C@H](C)NC(=O)[C@H](Cc1ccccc1)NC(=O)[C@@H]1CCCN1C(=O)[C@H](CC(N)=O)NC(=O)[C@@H](NC(=O)[C@H](CCCNC(=N)N)NC(=O)[C@@H](NC(=O)[C@H](C)NC(=O)[C@H](C)NC(=O)[C@@H]1CCCN1C(=O)CNC(=O)CCCCCNC(=O)CCCC[C@@H]1SC[C@@H]2NC(=O)N[C@@H]21)[C@@H](C)O)[C@@H](C)O)C(=O)N[C@@H](CC(=O)O)C(=O)N[C@@H](CC(N)=O)C(=O)N[C@@H](CCCNC(=N)N)C(=O)N1CCC[C@H]1C(=O)N[C@@H](CCCNC(=N)N)C(N)=O [DONSON_SYNJ1_N] (HELM PEPTIDE1{[O=C1N[C@H]2[C@H](CS[C@H]2CCCCC(=O)[*:2])N1].[O=C(CCCCCN[*:1])[*:2]].G.P.A.A.T.R.T.N.P.F.A.R.L.D.N.R.P.R.[am]}$$$$V2.0) | > 30 | 9.4 |
| C[C@H](NC(=O)[C@H](C)NC(=O)[C@@H]1CCCN1C(=O)CNC(=O)CCCCCNC(=O)CCCC[C@@H]1SC[C@@H]2NC(=O)N[C@@H]21)C(=O)N[C@@H](C)C(=O)N[C@@H](CCCNC(=N)N)C(=O)N[C@@H](CCCNC(=N)N)C(=O)N[C@@H](CC(N)=O)C(=O)N1CCC[C@H]1C(=O)N[C@@H](Cc1ccccc1)C(=O)N[C@@H](CO)C(=O)N[C@@H](CC(=O)O)C(=O)N[C@@H](CCCNC(=N)N)C(=O)N[C@@H](CC(=O)O)C(=O)N[C@@H](CC(N)=O)C(=O)N[C@@H](CCCNC(=N)N)C(=O)N1CCC[C@H]1C(=O)N[C@@H](CCCNC(=N)N)C(N)=O [DONSON_SYNJ1_C] (HELM PEPTIDE1{[O=C1N[C@H]2[C@H](CS[C@H]2CCCCC(=O)[*:2])N1].[O=C(CCCCCN[*:1])[*:2]].G.P.A.A.A.R.R.N.P.F.S.D.R.D.N.R.P.R.[am]}$$$$V2.0) | > 20 | 8.5 |
| C[C@H](NC(=O)[C@H](C)NC(=O)[C@@H]1CCCN1C(=O)CNC(=O)CCCCCNC(=O)CCCC[C@@H]1SC[C@@H]2NC(=O)N[C@@H]21)C(=O)N[C@H](C(=O)N[C@@H](CCCNC(=N)N)C(=O)N[C@H](C(=O)N[C@@H](CC(N)=O)C(=O)N1CCC[C@H]1C(=O)N[C@@H](Cc1ccccc1)C(=O)N[C@@H](CO)C(=O)N[C@@H](CC(=O)O)C(=O)N[C@@H](CCCNC(=N)N)C(=O)N[C@@H](CC(=O)O)C(=O)N[C@@H](CC(N)=O)C(=O)N[C@@H](CCCNC(=N)N)C(=O)N1CCC[C@H]1C(=O)N[C@@H](CCCNC(=N)N)C(N)=O)[C@@H](C)O)[C@@H](C)O [DONSON_SYNJ1_NC] (HELM PEPTIDE1{[O=C1N[C@H]2[C@H](CS[C@H]2CCCCC(=O)[*:2])N1].[O=C(CCCCCN[*:1])[*:2]].G.P.A.A.T.R.T.N.P.F.S.D.R.D.N.R.P.R.[am]}$$$$V2.0) | > 200 | > 200 |
| CC(C)C[C@H](NC(=O)[C@H](CCCNC(=N)N)NC(=O)[C@H](C)NC(=O)[C@H](Cc1ccccc1)NC(=O)[C@@H]1CCCN1C(=O)[C@H](CC(N)=O)NC(=O)[C@H](CCCNC(=N)N)NC(=O)[C@H](CCCNC(=N)N)NC(=O)[C@H](C)NC(=O)[C@H](C)NC(=O)[C@H](CC(=O)O)NC(=O)[C@H](CC(C)C)NC(=O)[C@H](CCCNC(=N)N)NC(=O)[C@H](C)NC(=O)[C@H](Cc1ccccc1)NC(=O)[C@@H]1CCCN1C(=O)[C@H](CC(N)=O)NC(=O)[C@H](CCCNC(=N)N)NC(=O)[C@H](CCCNC(=N)N)NC(=O)[C@H](C)NC(=O)[C@H](CC(=O)O)NC(=O)[C@H](CC(C)C)NC(=O)[C@H](CCCNC(=N)N)NC(=O)[C@H](C)NC(=O)[C@H](Cc1ccccc1)NC(=O)[C@@H]1CCCN1C(=O)[C@H](CC(N)=O)NC(=O)[C@H](CCCNC(=N)N)NC(=O)[C@H](CCCNC(=N)N)NC(=O)[C@H](C)NC(=O)[C@H](C)NC(=O)CCCCCNC(=O)CCCC[C@@H]1SC[C@@H]2NC(=O)N[C@@H]21)C(=O)N[C@@H](CC(=O)O)C(N)=O [3xDONSON] (HELM PEPTIDE1{[O=C1N[C@H]2[C@H](CS[C@H]2CCCCC(=O)[*:2])N1].[O=C(CCCCCN[*:1])[*:2]].A.A.R.R.N.P.F.A.R.L.D.A.R.R.N.P.F.A.R.L.D.A.A.R.R.N.P.F.A.R.L.D.[am]}$$$$V2.0) | 0.8 | 0.1 |

From PMC12808100, “The non-catalytic DNA polymerase ε subunit is an NPF motif recognition protein” (Nature Communications, 2025)
